Experimental data: the supplement of paper PMC10307832

Tests used:
Assay in all cases: relative viability (nuclei count vs DMSO), 5 days (fraction); higher = more cells survive
NCI-H650 = tested on: NCI-H650
How it was run: (§1)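 Lung cancer cell lines, seeded in 1536-well plates, were treated the following day by pin tool with a single drug or with five library-drug doses (not always all listed) in √10 steps on top of a fixed anchor-drug dose. Cells were fixed and nuclei stained in one step after 5 days, and nuclei were counted. Relative viability is the nuclei count for treated wells divided by that for vehicle wells, reported as medians of duplicate plates.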

NCI-H2009 = tested on: NCI-H2009
How it was run: as §1

NCI-H1792 = tested on: NCI-H1792
How it was run: as §1

SK-LU-1 = tested on: SK-LU-1
How it was run: as §1

NCI-H1993 = tested on: NCI-H1993
How it was run: as §1

LC-2-ad = tested on: LC-2-ad
How it was run: as §1

HCC-15 = tested on: HCC-15
How it was run: as §1

NCI-H647 = tested on: NCI-H647
How it was run: as §1

RERF-LC-KJ = tested on: RERF-LC-KJ
How it was run: as §1

LCLC-97TM1 = tested on: LCLC-97TM1
How it was run: as §1

NCI-H1755 = tested on: NCI-H1755
How it was run: as §1

NCI-H661 = tested on: NCI-H661
How it was run: as §1

NCI-H2085 = tested on: NCI-H2085
How it was run: as §1

SK-MES-1 = tested on: SK-MES-1
How it was run: as §1

NCI-H23 = tested on: NCI-H23
How it was run: as §1

NCI-H1395 = tested on: NCI-H1395
How it was run: as §1

NCI-H520 = tested on: NCI-H520
How it was run: as §1

BEN = tested on: BEN
How it was run: as §1

A-427 = tested on: A-427
How it was run: as §1

PC-3 [JPC-3] = tested on: PC-3 [JPC-3]
How it was run: as §1

NCI-H1651 = tested on: NCI-H1651
How it was run: as §1

NCI-H1650 = tested on: NCI-H1650
How it was run: as §1

NCI-H727 = tested on: NCI-H727
How it was run: as §1

NCI-H838 = tested on: NCI-H838
How it was run: as §1

H3255 = tested on: H3255
How it was run: as §1

SMILES: Nc1cccc2c1CN(C1CCC(=O)NC1=O)C2=O (stereo not drawn) [Lenalidomide] + CS(=O)(=O)N1CCN(Cc2cc3nc(-c4cccc5[nH]ncc45)nc(N4CCOCC4)c3s2)CC1 [Pictilisib] (partner 1 µM)
- relative viability (NCI-H650; first compound 0.253 µM): 0.822
- relative viability (NCI-H650; first compound 2.53 µM): 0.911
- relative viability (NCI-H650; first compound 8 µM): 0.739
- relative viability (NCI-H2009; first compound 0.253 µM): 0.852
- relative viability (NCI-H2009; first compound 0.8 µM): 1.01
- relative viability (NCI-H2009; first compound 2.53 µM): 0.941
- relative viability (NCI-H2009; first compound 8 µM): 0.768
- relative viability (NCI-H1792; first compound 0.253 µM): 0.298
- relative viability (NCI-H1792; first compound 0.8 µM): 0.192
- relative viability (NCI-H1792; first compound 2.53 µM): 0.264
- relative viability (NCI-H1792; first compound 8 µM): 0.184
- relative viability (SK-LU-1; first compound 0.253 µM): 0.602
- relative viability (SK-LU-1; first compound 0.8 µM): 0.58
- relative viability (SK-LU-1; first compound 2.53 µM): 0.704
- relative viability (SK-LU-1; first compound 8 µM): 0.502
- relative viability (NCI-H1993; first compound 0.253 µM): 0.824
- relative viability (NCI-H1993; first compound 0.8 µM): 0.827
- relative viability (NCI-H1993; first compound 2.53 µM): 0.872
- relative viability (NCI-H1993; first compound 8 µM): 0.803
- relative viability (LC-2-ad; first compound 0.253 µM): 0.434
- relative viability (LC-2-ad; first compound 0.8 µM): 0.487
- relative viability (LC-2-ad; first compound 2.53 µM): 0.467
- relative viability (LC-2-ad; first compound 8 µM): 0.538
- relative viability (HCC-15; first compound 0.253 µM): 0.744
- relative viability (HCC-15; first compound 2.53 µM): 0.768
- relative viability (HCC-15; first compound 8 µM): 0.668
- relative viability (NCI-H647; first compound 0.253 µM): 0.417
- relative viability (NCI-H647; first compound 2.53 µM): 0.535
- relative viability (NCI-H647; first compound 8 µM): 0.281
- relative viability (RERF-LC-KJ; first compound 0.253 µM): 0.494
- relative viability (RERF-LC-KJ; first compound 0.8 µM): 0.46
- relative viability (RERF-LC-KJ; first compound 2.53 µM): 0.543
- relative viability (RERF-LC-KJ; first compound 8 µM): 0.534
- relative viability (LCLC-97TM1; first compound 0.8 µM): 0.182
- relative viability (LCLC-97TM1; first compound 2.53 µM): 0.261
- relative viability (LCLC-97TM1; first compound 8 µM): 0.165
- relative viability (NCI-H1755; first compound 0.253 µM): 0.407
- relative viability (NCI-H1755; first compound 0.8 µM): 0.322
- relative viability (NCI-H1755; first compound 2.53 µM): 0.521
- relative viability (NCI-H1755; first compound 8 µM): 0.325
- relative viability (NCI-H661; first compound 0.253 µM): 0.59
- relative viability (NCI-H661; first compound 0.8 µM): 0.369
- relative viability (NCI-H661; first compound 2.53 µM): 0.44
- relative viability (NCI-H661; first compound 8 µM): 0.329
- relative viability (NCI-H2085; first compound 0.253 µM): 0.451
- relative viability (NCI-H2085; first compound 0.8 µM): 0.409
- relative viability (NCI-H2085; first compound 2.53 µM): 0.428
- relative viability (NCI-H2085; first compound 8 µM): 0.371
- relative viability (SK-MES-1; first compound 0.253 µM): 0.373
- relative viability (SK-MES-1; first compound 0.8 µM): 0.482
- relative viability (SK-MES-1; first compound 2.53 µM): 0.403
- relative viability (SK-MES-1; first compound 8 µM): 0.336
- relative viability (NCI-H23; first compound 0.253 µM): 0.372
- relative viability (NCI-H23; first compound 0.8 µM): 0.576
- relative viability (NCI-H23; first compound 2.53 µM): 0.523
- relative viability (NCI-H23; first compound 8 µM): 0.378
- relative viability (NCI-H1395; first compound 0.253 µM): 0.682
- relative viability (NCI-H1395; first compound 2.53 µM): 0.647
- relative viability (NCI-H1395; first compound 8 µM): 0.569
- relative viability (NCI-H520; first compound 0.253 µM): 0.353
- relative viability (NCI-H520; first compound 0.8 µM): 0.362
- relative viability (NCI-H520; first compound 2.53 µM): 0.293
- relative viability (NCI-H520; first compound 8 µM): 0.259
- relative viability (BEN; first compound 0.253 µM): 0.69
- relative viability (BEN; first compound 0.8 µM): 0.504
- relative viability (BEN; first compound 2.53 µM): 0.644
- relative viability (BEN; first compound 8 µM): 0.436
- relative viability (A-427; first compound 0.253 µM): 0.796
- relative viability (A-427; first compound 2.53 µM): 0.744
- relative viability (A-427; first compound 8 µM): 0.676
- relative viability (PC-3 [JPC-3]; first compound 0.253 µM): 0.781
- relative viability (PC-3 [JPC-3]; first compound 0.8 µM): 0.609
- relative viability (PC-3 [JPC-3]; first compound 2.53 µM): 0.98
- relative viability (PC-3 [JPC-3]; first compound 8 µM): 0.734
- relative viability (NCI-H1651; first compound 0.253 µM): 0.674
- relative viability (NCI-H1651; first compound 0.8 µM): 0.574
- relative viability (NCI-H1651; first compound 2.53 µM): 0.735
- relative viability (NCI-H1651; first compound 8 µM): 0.691
- relative viability (NCI-H1650; first compound 0.253 µM): 0.562
- relative viability (NCI-H1650; first compound 0.8 µM): 0.441
- relative viability (NCI-H1650; first compound 2.53 µM): 0.731
- relative viability (NCI-H1650; first compound 8 µM): 0.637
- relative viability (NCI-H727; first compound 0.253 µM): 0.418
- relative viability (NCI-H727; first compound 2.53 µM): 0.44
- relative viability (NCI-H727; first compound 8 µM): 0.306
- relative viability (NCI-H838; first compound 0.253 µM): 0.505
- relative viability (NCI-H838; first compound 0.8 µM): 0.318
- relative viability (NCI-H838; first compound 2.53 µM): 0.518
- relative viability (NCI-H838; first compound 8 µM): 0.387
- relative viability (H3255; first compound 0.253 µM): 0.459
- relative viability (H3255; first compound 0.8 µM): 0.519
- relative viability (H3255; first compound 2.53 µM): 0.526
- relative viability (H3255; first compound 8 µM): 0.406
